US12479805B2, “Indazole hydrazide compound and application thereof” (Beijing Baheal Chengchuang Pharmaceutical Research and …, priority 2021, dated 2025)
Where two headings read alike, the source gives them in different places. Each block holds one compound with its values, some of them ahead of it.

Columns and labels:
tumor cells LNCaP = assay: Anti-tumor activity assay (chemiluminescence CTG cell viability), LNCaP; assay type: cell-based; conditions: for IC50: Homo sapiens, 72 h, CTG chemiluminescence
Procedure: (§1) The frozen tumor cells (prostate cancer, ovarian cancer, etc.) were taken out from liquid nitrogen, and quickly dissolved at 37° C. The cells were added to 5 ml of the corresponding medium containing FBS and centrifuged at 300 g for 5 minutes. The precipitate was collected, resuspended with the corresponding medium and then mixed well. After that, cells were added to a 24-well cell culture dish, supplemented with the medium to a total volume of 2 mL per well at 37° C. and cultured. After the confluence reached about 90%, subculturing or counting and plating was performed.
(§2) After the cultured tumor cells were sufficient to be passaged, they were digested with trypsin and a single cell suspension was prepared. After counting, cells were adjusted to a concentration of 1.2×10^4 cells/ml with the corresponding medium. 90 μl of the mixed solution was added to a 96-well plate and incubated at 37° C. for 30 minutes. Then the mixture was added with the corresponding medium and incubated in a cell incubator at 37° C. overnight. The morphology and confluence of tumor cells were observed.
(§3) After the tumor cells were cultured overnight, serial dilutions of the compounds were prepared and added to the culture system.
(§4) The stock solution of the indazole hydrazide compound (100 mM) dissolved in DMSO was fully dissolved at room temperature. If there was any insoluble matter, heating and ultrasonication were carried out for 5 minutes to observe until dissolution.
(§5) 20 μl DMSO was added to wells 2-9 of a 96-well V-shaped compound dilution plate, and 30 μl stock solution was added to well 1. The compound dilution plate was placed on a shaking mixer. 10 μl liquid was transferred from well 1 to well 2, mixed well by pipetting and shaking, then 10 μl of liquid was transferred from well 2 to well 3, mixed well by pipetting and shaking, and so on . . . and finally 10 μl of liquid was transferred from well 8 to well 9, mixed well by pipetting and shaking, and 1000× gradient dilution stock solution was prepared. [Note: As DMSO easily absorbs moisture in the air, after the operation, the compound dilution plate was immediately sealed with parafilm, stored at 4° C., and discarded after 1 week. When using it again, the parafilm was removed after the temperature reached room temperature to avoid inaccurate concentration caused by moisture absorption.]
(§6) In the ultra-clean workbench, a 96-well sterile cell culture plate was used. 198 μl of medium was added to wells 1-9, and 2 μl of the stock solution in wells 1-9 of the 1000× stock solution was transferred to the corresponding wells 1-9 of the 96-well sterile cell culture plate, mixed well by pipetting and shaking, and […] was prepared. This stock solution needed to be prepared and used on the same day.
(§7) 10 μl of the 10× stock solution prepared on the day was added to the cell culture medium.
(§8) It was incubated for 72 h at 37° C. under 5% carbon dioxide conditions.
(§9) Chemiluminescence method was used to measure ATP level of cells to evaluate cell viability. The specific operation was performed in accordance with the instructions. After the incubation, 50 μL of CTG solution was added. After mixing well, the lysis mixture was transferred to a microplate reader. After 5-10 minutes, the chemiluminescence data were gathered in the microplate reader. Excel software was used to analyze and process the data, and GraphPad Prism 7 software was used to calculate IC50 according to the fitted dose-effect curve generated by the chemiluminescence data.
(§10) In this test, Z factor was used as a quality control indicator. Z′ factor was defined by 4 parameters: the mean (μ) and standard deviation (σ) of the positive control (positive, p) and the negative control (negative, n).
(§11) The negative control group was the untreated group with the addition of solvent (DMSO); the positive control was 2.5 μM BEZ235 or 1 μM Staurosporine. […]

[1] = test system: tumor cells and HUVEC cells spheroids; assay: 3D co-culture of tumor cells and HUVEC cells anti-angiogenesis experiment; assay type: cell-based, human; conditions: 0.3 μM, 1.0 μM, day 2 and day 5, VEGF 20 ng/mL
Procedure: 3.2 Experiments of Evaluating Anti-Angiogenesis of Compounds by 3D Co-Culture of Tumor Cells and HUVEC Cells: • (1) 25,000 tumor cells and 25,000 HUVEC cells were mixed and plated in a low-adsorption 24-well plate. Cells were shaken horizontally in a 37° C. incubator and placed for 24 h to form a suspension of Spheroids. • (2) 40 uL of 10% Matrigel was added to each well, and placed at 37° C. for 45 min to crosslink and harden the gel. 40 uL of suspension with Spheroids was added to wells. • (3) After 24 h, 10 uL of compounds with three concentrations of high, medium and low was added to the test compound group. In the VEGF group, 10 uL of culture medium containing 200 ng/ml VEGF was added. In the solvent group, 20 uL culture medium was supplemented. • (4) Cells were incubated in a 37° C. 5% CO2 incubator for 0, 2, 5, and 7 days, and photos of each well were taken.
Bright-field photos were taken under the microscope, scale bar=100 μm. The imageview software measurement tool was used to count the length of the blood vessels generated by one organoid. The average of the total length of blood vessels was calculated. It was compared with the 20 ng/ml VEGF group. *p<0.05, **p<0.01. Error bars indicate ±SEM.
In the 3D […] experiment, the following conclusions can be drawn based on the bright field photos and the total length of blood vessels on 0, 2, 5, and 7 days after addition of drugs: […]

HUVEC cells = assay: 2D angiogenesis experiment (HUVEC on Matrigel); assay type: cell-based, human; conditions: VEGF, 4 h
Procedure: 3.1 Evaluation of Anti-Angiogenesis of Compounds by 2D Angiogenesis Experiment:
(1) In a 96-well plate, 50 ul of 100% Matrigel was added to each well and air bubbles should be avoided. The plate was then placed in a 37° C. incubator for 45 minutes.
(2) When the confluence of HUVEC cells in good growth state reached about 80%, the cells were digested, and resuspended in HUVEC complete medium. 40 uL of resuspension was added to each well in triplicate at a concentration of 4×10000 cells/well.
(3) 5 uL of compounds with three concentrations of high, medium and low was added to the test compound group. In the VEGF group, 5 uL of culture medium containing 200 ng/ml VEGF was added. In the solvent group, 10 uL culture medium was supplemented.
(4) Cells were incubated in a 37° C. 5% CO2 incubator for 4 h, and photos of each well were taken.

integrin protein αvβ3 = integrin protein αvβ3 (Homo sapiens, UniProt P05106+P06756); assay: Affinity test by surface plasmon resonance (Biacore 8K); assay type: binding
Procedure: The surface plasmon resonance instrument Biacore 8K was used to analyze the interaction between the compound and the integrin protein αvβ3. First, the system temperature was set to 25° C., and the flow rate to […]. PBS buffer was passed until the baseline was stable.
Without activating the surface of the chip, the integrin αvβ3 protein sample was dissolved in sodium acetate buffer with different pH values (pH=4, 4.5, 5) to make it carry different amounts of charge. Then the integrin protein sample flowed through the surface of the chip at a flow rate of 10 μL/min. Through the binding curve of integrin and the chip, a appropriate pH condition (pH=4.0) was determined. Finally, 50 mM NaOH eluate was injected to wash away the protein adsorbed on the chip surface.
CM5 chip was selected. The protein coupling was operated according to the amino coupling method, and the coupling steps are as follows: • (1) Activation: NHS/EDC mixture (0.1 M NHS and 0.4 M EDC, mixed at a volume ratio of 1:1 before use, and used immediately) was injected for 800 s at a flow rate of 10 μL/min, to activate the carboxyl of glucan on the surface of the chip; • (2) Immobilization: 20 ng/μL integrin αvβ3 protein solution was prepared with the buffer with the pH value determined in the pretreatment, and was injected for 800 s at a flow rate of 10 μL/min; • (3) Blocking: 1 M ethanolamine hydrochloride was used to block for 800 s to complete the immobilization process of the protein. 4.1.4 Binding Experiment
The compound to be tested was dissolved in PBS-P buffer (1.0×PBS, pH7.4, 0.15M Nacl, 0.05% tween-20), to prepare to a concentration of 50 μM. It was injected at a flow rate of 10 μL/min for a preliminary binding analysis.
The compound that was positive in the preliminary analysis was then prepared with buffers to a concentration gradient of 50 μM, 25 μM, 12.5 μM, 6.3 μM, 3.1 μM, 1.6 μM, 0.78 μM, 0.39 μM, 0.097 μM, 0.024 μM, and 0.0061 μM, and SB273005 was used as a positive control for a kinetic constant analysis.

tumor cells 22RV1 = assay: Anti-tumor activity assay (chemiluminescence CTG cell viability), 22RV1; assay type: cell-based; conditions: 22RV1 cells; for Hillslope 22RV1: fitted dose-effect curve; for IC50: Homo sapiens, 72 h, CTG chemiluminescence
Procedure: as §1, §2, §3, §4, §5, §6, §7, §8, §9, §10, §11

[2] = test system: drug-resistant 22RV1 cells; assay: Combination with enzalutamide on 22RV1 cells (chemiluminescence); assay type: cell-based; conditions: in combination with enzalutamide, enzalutamide-resistant 22RV1 cells, FIG. 23
Procedure: as §9

[3] = test system: microvascular endothelial cell HMEC-1; assay: Activity assay (chemiluminescence), HMEC-1; assay type: cell-based; conditions: HMEC-1 cells, FIG. 21-22
[4] = test system: vascular endothelial cell HUVEC-T11; assay: Activity assay (chemiluminescence), HUVEC-T11; assay type: cell-based; conditions: HUVEC-T11 cells, FIG. 21-22
melanoma cell WM115 = assay: Anti-tumor activity assay (chemiluminescence), WM115; assay type: cell-based; conditions: WM115 cells, FIG. 21-22
Procedure: as §1
as §2, with “observed. […]” for “observed.”
(§12) Chemiluminescence method was used to measure ATP level of cells to evaluate cell viability. […] After mixing well, the lysis mixture was transferred to a microplate reader. After 5-10 minutes, the chemiluminescence data were gathered in the microplate reader. […]

[5] = test system: prostate cancer DU145 cells; assay: Anti-tumor activity assay (chemiluminescence), DU145; assay type: cell-based; conditions: FIG. 21-22
Procedure: as §1
as §2, with “observed. […]” for “observed.”
as §12

[6] = test system: prostate cancer PC-3 cells; assay: Anti-tumor activity assay (chemiluminescence), PC-3; assay type: cell-based; conditions: FIG. 21-22
Procedure: as §1
as §2, with “observed. […]” for “observed.”
as §12

[7] = test system: ovarian cancer cell OVCAR-4; assay: Anti-tumor activity assay (chemiluminescence), OVCAR-4; assay type: cell-based; conditions: OVCAR-4 cells, FIG. 21-22
Procedure: as §1
as §2, with “observed. […]” for “observed.”
as §12

[8] = SPR, immobilized integrin αvβ3, 25° C., read-out: KD affinity

Sequence of integrin protein αvβ3 (P06756 31-1048): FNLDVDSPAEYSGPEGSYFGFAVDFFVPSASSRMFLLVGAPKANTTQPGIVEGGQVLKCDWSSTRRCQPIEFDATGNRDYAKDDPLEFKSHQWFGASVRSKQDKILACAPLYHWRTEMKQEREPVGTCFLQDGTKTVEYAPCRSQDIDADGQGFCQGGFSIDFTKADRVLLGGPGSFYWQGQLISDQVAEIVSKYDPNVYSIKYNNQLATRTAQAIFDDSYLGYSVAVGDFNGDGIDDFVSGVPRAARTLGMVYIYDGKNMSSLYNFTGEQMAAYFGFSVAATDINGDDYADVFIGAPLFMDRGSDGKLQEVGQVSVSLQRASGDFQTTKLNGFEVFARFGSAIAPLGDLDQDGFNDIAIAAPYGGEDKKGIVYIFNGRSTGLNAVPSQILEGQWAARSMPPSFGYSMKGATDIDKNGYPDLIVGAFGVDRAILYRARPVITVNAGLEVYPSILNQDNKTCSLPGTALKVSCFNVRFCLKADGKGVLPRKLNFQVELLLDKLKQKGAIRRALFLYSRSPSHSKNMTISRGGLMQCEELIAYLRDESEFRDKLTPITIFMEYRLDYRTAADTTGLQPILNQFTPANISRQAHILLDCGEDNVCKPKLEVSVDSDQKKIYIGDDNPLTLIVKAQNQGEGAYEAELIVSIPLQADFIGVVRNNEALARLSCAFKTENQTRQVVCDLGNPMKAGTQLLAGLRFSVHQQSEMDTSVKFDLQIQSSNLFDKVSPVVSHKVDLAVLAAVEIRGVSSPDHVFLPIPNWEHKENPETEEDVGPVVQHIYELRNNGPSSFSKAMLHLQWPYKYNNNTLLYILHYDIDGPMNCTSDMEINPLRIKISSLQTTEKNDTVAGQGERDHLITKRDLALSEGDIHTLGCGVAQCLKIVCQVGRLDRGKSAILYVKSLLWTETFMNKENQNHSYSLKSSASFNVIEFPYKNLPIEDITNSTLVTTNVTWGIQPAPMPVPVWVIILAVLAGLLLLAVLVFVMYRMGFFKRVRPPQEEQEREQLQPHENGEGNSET
Sequence of integrin protein αvβ3 (P05106 27-788): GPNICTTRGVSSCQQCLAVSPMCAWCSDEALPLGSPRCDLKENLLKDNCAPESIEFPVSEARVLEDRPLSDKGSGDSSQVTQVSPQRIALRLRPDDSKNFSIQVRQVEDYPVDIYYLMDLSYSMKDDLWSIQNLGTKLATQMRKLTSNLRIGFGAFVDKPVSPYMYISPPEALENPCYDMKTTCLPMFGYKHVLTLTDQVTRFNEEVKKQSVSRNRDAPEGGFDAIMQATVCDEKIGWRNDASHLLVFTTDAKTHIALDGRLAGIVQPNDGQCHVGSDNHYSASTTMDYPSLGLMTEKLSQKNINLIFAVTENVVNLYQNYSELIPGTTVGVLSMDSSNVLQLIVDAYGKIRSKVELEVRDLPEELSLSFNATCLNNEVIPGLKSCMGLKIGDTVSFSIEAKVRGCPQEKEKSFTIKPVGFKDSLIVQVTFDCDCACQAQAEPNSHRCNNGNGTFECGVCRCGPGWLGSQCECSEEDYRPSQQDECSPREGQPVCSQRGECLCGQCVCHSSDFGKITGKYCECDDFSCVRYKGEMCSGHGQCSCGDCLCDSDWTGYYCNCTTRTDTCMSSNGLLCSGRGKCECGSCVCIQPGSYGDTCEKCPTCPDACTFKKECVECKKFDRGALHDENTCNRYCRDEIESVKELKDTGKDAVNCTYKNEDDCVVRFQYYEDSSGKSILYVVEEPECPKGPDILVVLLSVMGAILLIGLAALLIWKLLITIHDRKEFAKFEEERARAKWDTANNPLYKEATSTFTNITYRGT

Structure (SMILES): C/C(CCc1ccc(O)cc1)=N\NC(=O)c1n[nH]c2c1CCCC2 [19-1]
IC50 (tumor cells LNCaP): 28.8 µM

Structure (SMILES): O=C(N/N=C/c1c(O)cc(O)cc1O)c1n[nH]c2c1CCCC2 [19-5]
IC50 (tumor cells LNCaP): 36.7 µM
Kd (integrin protein αvβ3; [8]): 2.15 µM
Hillslope 22RV1 (tumor cells 22RV1): −2.689
IC50 (tumor cells 22RV1): 49.6 µM

Structure (SMILES): CC(C)C/C=C(/C=N/NC(=O)c1n[nH]c2c1CCCC2)c1ccccc1 [19-2]
IC50 (tumor cells LNCaP): 19.6 µM
Hillslope 22RV1 (tumor cells 22RV1): −0.7631
IC50 (tumor cells 22RV1): 364 µM

Structure (SMILES): Cc1ccc(/C=N/NC(=O)c2n[nH]c3c2CCCC3)cc1O [19-6]
inhibition of angiogenesis (total length of blood vessels) compared with the VEGF group ([1]; 3.0 μM, FIG. 33-34): significantly inhibit angiogenesis
IC50 (tumor cells LNCaP): 1.41 µM
inhibition of microtubule formation (HUVEC cells): significant inhibition
Hillslope 22RV1 (tumor cells 22RV1): −3.273
IC50 (tumor cells 22RV1): 0.86 µM

Structure (SMILES): Cc1ccc(/C=N/NC(=O)c2n[nH]c3c2CCCC3)cc1 [19-4]
inhibition of angiogenesis (total length of blood vessels) compared with the VEGF group ([1]; 0.1 μM, FIG. 32): significantly inhibit angiogenesis
IC50 (tumor cells LNCaP): 0.36 µM
inhibition of microtubule formation (HUVEC cells): significant inhibition
Hillslope 22RV1 (tumor cells 22RV1): −4.343
IC50 (tumor cells 22RV1): 0.25 µM

Structure (SMILES): O=C(N/N=C/CCc1cccc(C(F)(F)F)c1)c1n[nH]c2c1CCCC2 [19-3]
IC50 (tumor cells LNCaP): 19.6 µM

Second part, led by results:

IC50 (tumor cells LNCaP): 1.09 µM
Kd (integrin protein αvβ3; [8]): 0.78 µM
IC50 (tumor cells 22RV1): 0.47 µM
Structure (SMILES): COc1ccc(/C=N/NC(=O)c2n[nH]c3c2CCCC3)cc1O [19-9]
inhibition of angiogenesis (total length of blood vessels) compared with the VEGF group ([1]; 3.0 μM, FIG. 33-34): significantly inhibit angiogenesis
inhibition of microtubule formation (HUVEC cells): significant inhibition
Hillslope 22RV1 (tumor cells 22RV1): −2.911

IC50 (tumor cells LNCaP): 3.76 µM
IC50 (tumor cells 22RV1): 3.49 µM
Structure (SMILES): O=C(N/N=C/c1ccc([N+](=O)[O-])cc1)c1n[nH]c2c1CCCC2 [19-8]
inhibition of microtubule formation (HUVEC cells): did not show any obvious inhibition
Hillslope 22RV1 (tumor cells 22RV1): −1.177

IC50 (tumor cells LNCaP): 4.27 µM
Kd (integrin protein αvβ3; [8]): 10.1 µM
IC50 (tumor cells 22RV1): 4.08 µM
Structure (SMILES): COc1ccc(/C=N/NC(=O)c2n[nH]c3c2CCCC3)cc1OC [19-7]
inhibition of microtubule formation (HUVEC cells): did not show any obvious inhibition
Hillslope 22RV1 (tumor cells 22RV1): −13.53

Kd (integrin protein αvβ3; stated in summary text, read-out: KD value interacting with the protein αvβ3): 0.158 µM
Structure (SMILES): O=C(N/N=C/c1cccc(O)c1)c1n[nH]c2c1CCCC2 [Formula (5)]
anti-tumor activity (activity curve) (tumor cells LNCaP; FIG. 21-22): obvious anti-tumor activity
effect of combination with enzalutamide [2]: synergistic effect
inhibitory effect (activity curve) [3]: inhibitory effect
inhibitory effect (activity curve) [4]: inhibitory effect
tumor-inhibiting effect (activity curve) (melanoma cell WM115): highest tumor-inhibiting effect
anti-tumor activity (activity curve) [5]: obvious anti-tumor activity
anti-tumor activity (activity curve) [6]: obvious anti-tumor activity
anti-tumor activity (activity curve) (tumor cells 22RV1; FIG. 21-22): obvious anti-tumor activity
inhibitory effect (activity curve) [7]: inhibitory effect
